Source: US11331289B2, “Antimicrobial composition” (priority 2017, dated 2022)

Key:
[1] = test system: MRSP 16125; assay: Time-killing curve, inoculum 10^6 CFU/ml (MIC 0.5 μg/ml); format: cell-based, Staphylococcus pseudintermedius
Procedure: (§1) The objective of this study is to assess in vitro the time-killing curves of oxyclozanide against four strains of Methicillin-Resistant Staphylococcus from dogs.
(§2) Two Methicillin-Resistant Staphylococcus aureus (MRSA) and two Methicillin-Resistant Staphylococcus pseudintermedius (MRSP) isolated from the clinics have been tested.
(§3) The assessment of time-killing curves has been realized by a broth macrodilution method (Mueller-Hinton II Broth).
(§4) Oxyclozanide is diluted in (DMSO) into sterile tubes in order to obtain the following concentrations from 800 to 6.25 μg/ml. Those concentrations and stock standard solution are then diluted (1/10) in Mueller-Hinton II Broth in order to obtain the following concentrations from […] (See Table 2).
(§5) Each operation is performed under sterile conditions. Each working standard solution (10*the final active ingredient concentration) is distributed in tubes (1 ml, for a final volume of 10 ml after addition of 9 ml of inoculum). One tube without active ingredient is used as growth control (Concentration=0).
(§6) Bacterial isolates are sub-cultured from one cryobead on Columbia agar supplemented with 5% of blood. Pure cultures are incubated during 18-24 hours at 37° C. Three to five isolated colonies of similar appearance are selected from a previous culture and transferred into tubes containing 9 ml of Mueller-Hinton II Broth. The broth is incubated during 12-18 hours at 37° C. 0.5 to 1 ml of this broth is inoculated to another Mueller-Hinton II Broth 9 ml tube which is incubated during 3 to 4 hours at 37° C. to reach the exponential growth phase. The bacterial inoculum grown exponential phase is suspended to an optical density of McFarland standard scale 0.5 equivalent to a bacterial density of 10^8 CFU/ml and then adjusted to a concentration of about 5.10^5 CFU/ml as indicated by the guideline CLSI M26-A and to a second inoculum tested: 10^6 CFU/ml.
(§7) 9 ml of bacterial inoculum grown to exponential phase is added to 1 ml of active ingredient (or Mueller Hinton II Broth for the growth control). Tubes are incubated at 35° C. during 24 hours.
(§8) At times 0, 2, 4, 6 and 24 hours, 100 μl of broth of each tube is sampled and diluted in microplates:
(§9) Each well is re-cultured by streaking 10 μl on Columbia agar supplemented with 5% of blood. Plates are incubated at 37° C. during 18-24 hours incubation. Thus, residual bacterial concentrations are determined (CFU/ml). Results are expressed in log10 values of CFU/ml over-time in broth. Due to the procedure used, the minimal bacterial concentration that can be assessed is 10^2 CFU/ml.

[2] = test system: MRSP 16127; assay: Time-killing curve, inoculum 5.10^5 CFU/ml (MIC 0.25 μg/ml); format: cell-based, Staphylococcus pseudintermedius
Procedure: as §1, §2, §3, §4, §5, §6, §7, §8, §9

`O=C(Nc1cc(Cl)cc(Cl)c1O)c1c(O)c(Cl)cc(Cl)c1Cl` [Oxyclozanide] gave a Counting results ([1]; 1 MIC, 0 h) of 1.000E+06 CFU/ml, a Counting results ([1]; 1 MIC, 2 h) of 1.000E+06 CFU/ml and a Counting results ([1]; 1 MIC, 4 h) of 1.500E+05 CFU/ml. For the same compound, the Counting results ([1]; 1 MIC, 6 h) was 1.000E+05 CFU/ml, the Counting results ([1]; 1 MIC, 24 h) was 4.100E+06 CFU/ml and the Counting results ([1]; 2 MIC, 0 h) was 1.000E+06 CFU/ml. The Counting results ([1]; 2 MIC, 2 h) was 1.600E+03 CFU/ml, the Counting results ([1]; 2 MIC, 4 h) was 1.000E+02 CFU/ml and the Counting results ([1]; 2 MIC, 6 h) was 1.000E+02 CFU/ml. It also gave a Counting results ([1]; 2 MIC, 24 h) of 1.000E+02 CFU/ml, a Counting results ([1]; 4 MIC, 0 h) of 1.000E+06 CFU/ml and a Counting results ([1]; 4 MIC, 2 h) of 5.000E+02 CFU/ml. It also gave a Counting results ([1]; 4 MIC, 4 h) of 1.000E+02 CFU/ml, a Counting results ([1]; 4 MIC, 6 h) of 1.000E+02 CFU/ml and a Counting results ([1]; 4 MIC, 24 h) of 1.000E+02 CFU/ml. It also gave a Counting results ([1]; 8 MIC, 0 h) of 1.000E+06 CFU/ml, a Counting results ([1]; 8 MIC, 2 h) of 1.000E+02 CFU/ml and a Counting results ([1]; 8 MIC, 4 h) of 1.000E+02 CFU/ml. The Counting results ([1]; 8 MIC, 6 h) was 1.000E+02 CFU/ml, the Counting results ([1]; 8 MIC, 24 h) was 1.000E+02 CFU/ml and the Counting results ([1]; 16 MIC, 0 h) was 1.000E+06 CFU/ml. The Counting results ([1]; 16 MIC, 2 h) was 1.000E+02 CFU/ml, the Counting results ([1]; 16 MIC, 4 h) was 1.000E+02 CFU/ml and the Counting results ([1]; 16 MIC, 6 h) was 1.000E+02 CFU/ml. The Counting results ([1]; 16 MIC, 24 h) was 1.000E+02 CFU/ml, the “Time to obtain bactericidal effect at 4 MIC” value ([1]; 16125/10^6 CFU/ml, >=3 log10 decrease in CFU) was 2 h and the Counting results ([1]; ¼ MIC, 0 h) was 1.000E+06 CFU/ml. It also gave a Counting results ([1]; ¼ MIC, 2 h) of 1.500E+06 CFU/ml, a Counting results ([1]; ¼ MIC, 4 h) of 1.000E+07 CFU/ml and a Counting results ([1]; ¼ MIC, 6 h) of 1.000E+08 CFU/ml. For the same compound, the Counting results ([1]; ¼ MIC, 24 h) was 2.600E+09 CFU/ml, the Counting results ([1]; ½ MIC, 0 h) was 1.000E+06 CFU/ml and the Counting results ([1]; ½ MIC, 2 h) was 1.800E+06 CFU/ml. For the same compound, the Counting results ([1]; ½ MIC, 4 h) was 2.800E+06 CFU/ml, the Counting results ([1]; ½ MIC, 6 h) was 3.400E+06 CFU/ml and the Counting results ([1]; ½ MIC, 24 h) was 1.900E+08 CFU/ml. It also gave a Counting results ([2]; 1 MIC, 0 h) of 3.600E+05 CFU/ml, a Counting results ([2]; 1 MIC, 2 h) of 2.300E+05 CFU/ml and a Counting results ([2]; 1 MIC, 4 h) of 1.900E+06 CFU/ml. It also gave a Counting results ([2]; 1 MIC, 6 h) of 4.600E+06 CFU/ml, a Counting results ([2]; 1 MIC, 24 h) of 8.100E+08 CFU/ml and a Counting results ([2]; 2 MIC, 0 h) of 3.600E+05 CFU/ml. The Counting results ([2]; 2 MIC, 2 h) was 2.000E+05 CFU/ml, the Counting results ([2]; 2 MIC, 4 h) was 2.400E+05 CFU/ml and the Counting results ([2]; 2 MIC, 6 h) was 2.400E+05 CFU/ml. The Counting results ([2]; 2 MIC, 24 h) was 6.600E+05 CFU/ml, the Counting results ([2]; 4 MIC, 0 h) was 3.600E+05 CFU/ml and the Counting results ([2]; 4 MIC, 2 h) was 1.400E+04 CFU/ml. For the same compound, the Counting results ([2]; 4 MIC, 4 h) was 4.400E+03 CFU/ml, the Counting results ([2]; 4 MIC, 6 h) was 3.500E+03 CFU/ml and the Counting results ([2]; 4 MIC, 24 h) was 1.300E+03 CFU/ml. The Counting results ([2]; 8 MIC, 0 h) was 3.600E+05 CFU/ml, the Counting results ([2]; 8 MIC, 2 h) was 1.600E+03 CFU/ml and the Counting results ([2]; 8 MIC, 4 h) was 4.000E+02 CFU/ml. For the same compound, the Counting results ([2]; 8 MIC, 6 h) was 1.000E+02 CFU/ml, the Counting results ([2]; 8 MIC, 24 h) was 1.000E+02 CFU/ml and the Counting results ([2]; 16 MIC, 0 h) was 3.600E+05 CFU/ml. It also gave a Counting results ([2]; 16 MIC, 2 h) of 3.000E+02 CFU/ml, a Counting results ([2]; 16 MIC, 4 h) of 1.000E+02 CFU/ml and a Counting results ([2]; 16 MIC, 6 h) of 1.000E+02 CFU/ml. The Counting results ([2]; 16 MIC, 24 h) was 1.000E+02 CFU/ml, the “Time to obtain bactericidal effect at 4 MIC” value ([2]; 16127/5.10^5 CFU/ml, >=3 log10 decrease in CFU) was 6 to 24 h and the Counting results ([2]; ¼ MIC, 0 h) was 3.600E+05 CFU/ml. It also gave a Counting results ([2]; ¼ MIC, 2 h) of 3.900E+05 CFU/ml, a Counting results ([2]; ¼ MIC, 4 h) of 5.900E+06 CFU/ml and a Counting results ([2]; ¼ MIC, 6 h) of 3.400E+07 CFU/ml. For the same compound, the Counting results ([2]; ¼ MIC, 24 h) was 2.900E+10 CFU/ml, the Counting results ([2]; ½ MIC, 0 h) was 3.600E+05 CFU/ml and the Counting results ([2]; ½ MIC, 2 h) was 3.300E+05 CFU/ml. For the same compound, the Counting results ([2]; ½ MIC, 4 h) was 2.700E+06 CFU/ml, the Counting results ([2]; ½ MIC, 6 h) was 2.400E+07 CFU/ml and the Counting results ([2]; ½ MIC, 24 h) was 2.900E+10 CFU/ml.
